{
  "source": "patent US11058680B2",
  "about": "“Combinations of opioid/TLR4 antagonists and acetaminophen for use in the treatment of emotional pain and insomnia” (Allodynic Threapeutics, LLC, priority 2016, dated 2021)",
  "key": {"emotional pain": {"system": "emotional pain", "assay": "Migraine open-label pilot study: emotional pain on 4-point scale (emotional pain-free, emotional pain intensity)", "assay_type": "in vivo, human", "conditions": "for Emotional pain-free: 48 h; for Change in emotional pain-free / Change in emotional pain-intensity: baseline to 24 h; for Emotional pain-intensity at 24 hours post-dosing / Emotional pain-intensity at baseline: sum of severity of all patients", "procedure": "(§1) Sixteen unique patients were enrolled in an open phase pilot study for the acute treatment of migraine attacks, insomnia, and emotional pain. Of the sixteen patients, eleven were evaluated for one migraine attack, one for two attacks, two for four attacks, one for six attacks, and one for fourteen attacks. A total of forty-one […] treatments were evaluated. Patients received a single dose of one of the following treatment options:\n(§2) The majority of the patients remained in the clinic for observation for 2 hours after dosing. They completed headache diary assessments immediately before and after dosing at time points: 7, 15, and 30 minutes; and 1, 1.5, 2, 3, 6, 12, 24, and 48 hours. Headache pain was assessed on a 4-point scale (0=none; 1=mild; 2=moderate; 3=severe). The assessment of photophobia, phonophobia, nausea, and neck/shoulder pain was assessed as present or absent. The assessment of emotional pain was recorded on a 4-point scale (0=none, 1=mild, 2=moderate, 3=severe). The assessment of difficulty sleeping or falling asleep (insomnia) was assessed on a 4-point scale (0=none, 1=mild, 2=moderate, 3=severe) at baseline, for the night before treatment and for the following nights at 24, and 48 hours. Patients recorded side effects severity at each time point. Patients recorded the time of the first rescue medication dose and all additional headache medications used within 48 hours. Patients were required to stay awake to record their assessments in the first 2 hours, sleeping was permitted thereafter. While asleep, assessments were completed according to patients' best estimation. For data analysis, it was assumed that a migraine attack is a unique patient. Patients were asked to specify (yes or no answer) to whether they experienced emotional pain symptoms such as: hurt feelings, sadness, fear, or anger. Patients who replied positively to having emotional pain were asked to specify the cause into one of the following options: relationship, work/school, money/debt, health, or loss/grief."}, "insomnia": {"system": "insomnia", "assay": "Migraine open-label pilot study: insomnia on 4-point scale, night before vs. night after dosing (insomnia-free, insomnia intensity)", "assay_type": "in vivo, human", "conditions": "for Change in insomnia-free / Change in insomnia-intensity: baseline to night after dosing; for Insomnia-intensity at baseline / Insomnia-intensity at night after dosing: sum of severity of all patients", "procedure": "as §1, §2"}, "[1]": {"conditions": "24 hours after dosing, naltrexone/acetaminophen 2.25 mg/325 mg (N=21), naltrexone 2.25 mg (N=9)"}, "[2]": {"conditions": "NTX/APAP 2.25 mg/325 mg, NTX 2.25 mg"}, "[3]": {"conditions": "NTX/APAP 3.25 mg/325 mg, NTX 3.25 mg"}, "[4]": {"conditions": "night after dosing, NTX/APAP 2.25 mg/325 mg, NTX 2.25 mg"}, "[5]": {"conditions": "night after dosing, NTX/APAP 3.25 mg/325 mg, NTX 3.25 mg"}, "[6]": {"conditions": "night after dosing, NTX/APAP 5 mg/325 mg, NTX 5 mg"}, "[7]": {"conditions": "night after dosing, NTX/APAP […]325 mg, NTX 1.5 mg"}, "[8]": {"conditions": "night after dosing, naltrexone/acetaminophen 2.25 mg/325 mg (N=21), naltrexone 2.25 mg (N=9)"}},
  "data": [
    {"smiles": "O=C1CC[C@@]2(O)[C@H]3Cc4ccc(O)c5c4[C@@]2(CCN3CC2CC2)[C@H]1O5", "note": "[naltrexone]", "values": [
      {"measurement": "emotional pain intensity change from baseline", "setting": "emotional pain; [1]", "value": "−55", "unit": "%"},
      {"measurement": "emotional pain-free change from baseline", "setting": "emotional pain; [1]", "value": 33, "unit": "%"},
      {"measurement": "Emotional pain-free", "setting": "emotional pain; [2]", "value": "9 (100)"},
      {"measurement": "Emotional pain-free", "setting": "emotional pain; [3]", "value": "3 (100)"},
      {"measurement": "Emotional pain-free", "setting": "emotional pain; NTX/APAP 5 mg/325 mg, NTX 5 mg", "value": "1 (100)"},
      {"measurement": "Emotional pain-free", "setting": "emotional pain; NTX/APAP […]325 mg, NTX 1.5 mg", "value": "3 (100)"},
      {"measurement": "Emotional pain-free", "setting": "emotional pain; combined doses", "value": "13 (100) n (%)"},
      {"measurement": "Change in emotional pain-free", "setting": "emotional pain; [2]", "value": "+3 (+33) n (%)"},
      {"measurement": "Change in emotional pain-intensity", "setting": "emotional pain; [2]", "value": "−5 (−55) n (%)"},
      {"measurement": "Change in emotional pain-intensity", "setting": "emotional pain; [3]", "value": "−1 (−100) n (%)"},
      {"measurement": "Change in emotional pain-intensity", "setting": "emotional pain; NTX/APAP 5 mg/325 mg, NTX 5 mg", "value": "−2 (−100) n (%)"},
      {"measurement": "Change in emotional pain-free", "setting": "emotional pain; NTX/APAP […]325 mg, NTX 1.5 mg", "value": "+1 n (%)"},
      {"measurement": "Emotional pain-free at baseline", "setting": "emotional pain; [2]", "value": "6 (66) n (%)"},
      {"measurement": "Emotional pain-free at baseline", "setting": "emotional pain; [3]", "value": "2 n (%)"},
      {"measurement": "Emotional pain-free at baseline", "setting": "emotional pain; NTX/APAP 5 mg/325 mg, NTX 5 mg", "value": "0 n (%)"},
      {"measurement": "Emotional pain-free at baseline", "setting": "emotional pain; NTX/APAP […]325 mg, NTX 1.5 mg", "value": "2 n (%)"},
      {"measurement": "Emotional pain-intensity at 24 hours post-dosing", "setting": "emotional pain; [2]", "value": "0 n (%)"},
      {"measurement": "Emotional pain-intensity at 24 hours post-dosing", "setting": "emotional pain; [3]", "value": "0 n (%)"},
      {"measurement": "Emotional pain-intensity at 24 hours post-dosing", "setting": "emotional pain; NTX/APAP 5 mg/325 mg, NTX 5 mg", "value": "0 n (%)"},
      {"measurement": "Emotional pain-intensity at 24 hours post-dosing", "setting": "emotional pain; NTX/APAP […]325 mg, NTX 1.5 mg", "value": "0 n (%)"},
      {"measurement": "Emotional pain-intensity at baseline", "setting": "emotional pain; [2]", "value": "5 (55) n (%)"},
      {"measurement": "Emotional pain-intensity at baseline", "setting": "emotional pain; [3]", "value": "1 n (%)"},
      {"measurement": "Emotional pain-intensity at baseline", "setting": "emotional pain; NTX/APAP 5 mg/325 mg, NTX 5 mg", "value": "2 n (%)"},
      {"measurement": "Emotional pain-intensity at baseline", "setting": "emotional pain; NTX/APAP […]325 mg, NTX 1.5 mg", "value": "2 n (%)"},
      {"measurement": "Insomnia-free", "setting": "insomnia; 24 h, combined doses", "value": "11 (69) n (%)"},
      {"measurement": "Insomnia-free", "setting": "insomnia; 24 h time point = night following the day of initial dosing, NTX/APAP 2.25 mg/325 mg, NTX 2.25 mg", "value": "6 (66) n (%)"},
      {"measurement": "Insomnia-free", "setting": "insomnia; 24 h time point = night following the day of initial dosing, NTX/APAP 3.25 mg/325 mg, NTX 3.25 mg", "value": "2 (66) n (%)"},
      {"measurement": "Insomnia-free", "setting": "insomnia; 24 h time point = night following the day of initial dosing, NTX/APAP 5 mg/325 mg, NTX 5 mg", "value": "1 (100) n (%)"},
      {"measurement": "Insomnia-free", "setting": "insomnia; 24 h time point = night following the day of initial dosing, NTX/APAP […]325 mg, NTX 1.5 mg", "value": "2 (66) n (%)"},
      {"measurement": "Insomnia-free", "setting": "insomnia; 48 h, NTX/APAP 2.25 mg/325 mg, NTX 2.25 mg", "value": "8 (88) n (%)"},
      {"measurement": "Insomnia-free", "setting": "insomnia; 48 h, NTX/APAP 5 mg/325 mg, NTX 5 mg", "value": "1 (100) n (%)"},
      {"measurement": "Insomnia-free", "setting": "insomnia; 48 h, combined doses", "value": "2 (13) n (%)"},
      {"measurement": "Change in insomnia-free", "setting": "insomnia; [2]", "value": "+2 (22) n (%)"},
      {"measurement": "Change in insomnia-intensity", "setting": "insomnia; [2]", "value": "−10 (−111) n (%)"},
      {"measurement": "Change in insomnia-free", "setting": "insomnia; [3]", "value": "+1 n (%)"},
      {"measurement": "Change in insomnia-intensity", "setting": "insomnia; [3]", "value": "−1 (−50) n (%)"},
      {"measurement": "Change in insomnia-free", "setting": "insomnia; NTX/APAP 5 mg/325 mg, NTX 5 mg", "value": "0 n (%)"},
      {"measurement": "Change in insomnia-intensity", "setting": "insomnia; NTX/APAP 5 mg/325 mg, NTX 5 mg", "value": "+2 (+200) n (%)"},
      {"measurement": "Change in insomnia-free", "setting": "insomnia; NTX/APAP […]325 mg, NTX 1.5 mg", "value": "0 n (%)"},
      {"measurement": "Change in insomnia-intensity", "setting": "insomnia; NTX/APAP […]325 mg, NTX 1.5 mg", "value": "−2 (−66) n (%)"},
      {"measurement": "Insomnia-free at baseline", "setting": "insomnia; [2]", "value": "4 (44) n (%)"},
      {"measurement": "Insomnia-free at baseline", "setting": "insomnia; [3]", "value": "1 n (%)"},
      {"measurement": "Insomnia-free at baseline", "setting": "insomnia; NTX/APAP 5 mg/325 mg, NTX 5 mg", "value": "0 n (%)"},
      {"measurement": "Insomnia-free at baseline", "setting": "insomnia; NTX/APAP […]325 mg, NTX 1.5 mg", "value": "2 n (%)"},
      {"measurement": "Insomnia-free at night after dosing", "setting": "insomnia; [4]", "value": "6 (66) n (%)"},
      {"measurement": "Insomnia-free at night after dosing", "setting": "insomnia; [5]", "value": "2 (66) n (%)"},
      {"measurement": "Insomnia-free at night after dosing", "setting": "insomnia; [6]", "value": "0 n (%)"},
      {"measurement": "Insomnia-free at night after dosing", "setting": "insomnia; [7]", "value": "2 n (%)"},
      {"measurement": "insomnia intensity change from baseline", "setting": "insomnia; [8]", "value": "−111", "unit": "%"},
      {"measurement": "insomnia-free change from baseline", "setting": "insomnia; [8]", "value": 22, "unit": "%"},
      {"measurement": "insomnia intensity improved by", "setting": "insomnia; night before vs. night after treatment, naltrexone 2.25 mg (n=9)", "value": 111, "unit": "%"},
      {"measurement": "Insomnia-intensity at baseline", "setting": "insomnia; [2]", "value": "14 (155) n (%)"},
      {"measurement": "Insomnia-intensity at baseline", "setting": "insomnia; [3]", "value": "2 n (%)"},
      {"measurement": "Insomnia-intensity at baseline", "setting": "insomnia; NTX/APAP 5 mg/325 mg, NTX 5 mg", "value": "1 n (%)"},
      {"measurement": "Insomnia-intensity at baseline", "setting": "insomnia; NTX/APAP […]325 mg, NTX 1.5 mg", "value": "3 n (%)"},
      {"measurement": "Insomnia-intensity at night after dosing", "setting": "insomnia; [4]", "value": "4 (44) n (%)"},
      {"measurement": "Insomnia-intensity at night after dosing", "setting": "insomnia; [5]", "value": "1 n (%)"},
      {"measurement": "Insomnia-intensity at night after dosing", "setting": "insomnia; [6]", "value": "3 n (%)"},
      {"measurement": "Insomnia-intensity at night after dosing", "setting": "insomnia; [7]", "value": "1 n (%)"}
    ]}
  ]
}
